Results as given in PMC6599250, “Functional diversity of inhibitors tackling the differentiation blockage of MLL-rearranged leukemia” (Journal of Hematology & Oncology, 2019).
Like-named read-outs stand apart in the source and are kept apart here.

Legend:
Format in all cases: cell-based
RS4;11 (MLL-AF4) cells = assay: Cell proliferation (alamarBlue) RS4;11; conditions: Homo sapiens, RS4-11, RS4;11 (MLL-AF4), read-out: IC50 proliferation
Protocol: (§1) Cells were seeded in the optimal growth medium at 4000–5000 cells/well in a 96 MTP and cultured 18–24 h before inhibitor treatment.

OCI-AML-3 (MLL-WT) cells = assay: Cell proliferation (alamarBlue) OCI-AML-3; conditions: Homo sapiens, OCI-AML-3, OCI-AML-3 (MLL-WT), read-out: IC50 proliferation
Protocol: as §1

MOLM-14 (MLL-AF9) cells = assay: Cell proliferation (alamarBlue) MOLM-14; conditions: Homo sapiens, MOLM-14, MOLM-14 (MLL-AF9), read-out: IC50 proliferation
Protocol: as §1

OCI-AML-5 (MLL-WT) cells = assay: Cell proliferation (alamarBlue) OCI-AML-5; conditions: Homo sapiens, OCI-AML-5, OCI-AML-5 (MLL-WT), read-out: IC50 proliferation
Protocol: as §1

NOMO-1 (MLL-AF9) cells = assay: Cell proliferation (alamarBlue) NOMO-1; conditions: Homo sapiens, NOMO-1, NOMO-1 (MLL-AF9), read-out: IC50 proliferation
Protocol: as §1

EOL-1 (MLL-TD) cells = assay: Cell proliferation (alamarBlue) EOL-1; conditions: Homo sapiens, EOL1, EOL-1 (MLL-TD), read-out: IC50 proliferation
Protocol: as §1

MV4-11 (MLL-AF4) cells = assay: Cell proliferation (alamarBlue) MV4-11; conditions: Homo sapiens, MV4-11, MV4-11 (MLL-AF4), read-out: IC50 proliferation
Protocol: as §1

Jurkat (MLL-WT) cells = assay: Cell proliferation (alamarBlue) Jurkat; conditions: Homo sapiens, Jurkat (MLL-WT)
Protocol: as §1

KOPN-8 (MLL-ENL) cells = assay: Cell proliferation (alamarBlue) KOPN-8; conditions: Homo sapiens, KOPN-8, KOPN-8 (MLL-ENL), read-out: IC50 proliferation
Protocol: as §1

HL-60 (MLL-WT) cells = assay: Cell proliferation (alamarBlue) HL-60; conditions: Homo sapiens, HL-60 (MLL-WT), read-out: IC50 proliferation
Protocol: as §1

[1] = test system: MV4-11, MOLM-13 and HL-60 cells; assay: Cell proliferation, all three tested AML cell lines; conditions: 96 h; all tested cell lines (MV4-11, MOLM-13, HL-60), 4 days of treatment (Fig. 1a); read-out: anti-proliferation IC50s
Protocol: Cells were seeded in the optimal growth medium at 4000–5000 cells/well in a 96 MTP and cultured 18–24 h before inhibitor treatment. Upon treatment with the indicated inhibitor, cells were cultured for 24 h, 96 h, and 168 h and effects on proliferation were determined using alamarBlue Cell Viability Reagent (Thermo Fisher Scientific, Waltham, MA, USA).

[2] = test system: MV4-11, MOLM-13 and HL-60 cells; assay: Cell cycle analysis (PI, flow cytometry); conditions: 4 days of treatment (Figure S2)
Protocol: Cells were washed with PBS and fixed overnight at − 20 °C with 70% ethanol. Fixed cells were stained with PI solution (Sigma-Aldrich St. Louis, MO, USA) solution containing RNase A (Qiagen, Hilden, Germany). Fluorescence was measured with FACS Canto II (BD Biosciences, Heidelberg, Germany) flow cytometer and data was analyzed with FACSDiva software.

ML-2 (MLL-AF6) cells = assay: Cell proliferation (alamarBlue) ML-2; conditions: ML-2 (MLL-AF6), read-out: IC50 proliferation
Protocol: as §1

HL-60 cells = assay: CD11b protein expression by flow cytometry, HL-60; conditions: non-fused HL-60 cell line, 4 and 7 days of treatment
Protocol: (§2) Four thousand cells per well were seeded 24 h before they were treated with the indicated inhibitor in a 96 MTP. After 4 or 7 days of treatment, cells were washed with PBS and stained with CD11b - APC (BioLegend, San Diego, California, USA) and DAPI (Thermo Fisher Scientific, Waltham, Massachusetts, USA) or AnnexinV – FITC (BioLegend, San Diego, California, USA) and PI solution (Sigma-Aldrich St. Louis, Missouri, USA) using the FACS Canto II (BD Biosciences, Heidelberg, Germany) and data was analyzed with FACSDiva software.

SEM (MLL-AF4) cells = assay: Cell proliferation (alamarBlue) SEM; conditions: SEM (MLL-AF4), read-out: IC50 proliferation
Protocol: as §1

[3] = test system: OCI-AML-2 (MLL-AF9) cells; assay: Cell proliferation (alamarBlue) OCI-AML-2; conditions: Homo sapiens, OCI-AML2, OCI-AML-2 (MLL-AF9), read-out: IC50 proliferation
Protocol: as §1

MOLM-13 (MLL-AF9) cells = assay: Cell proliferation (alamarBlue) MOLM-13; conditions: Homo sapiens, MOLM-13, MOLM-13 (MLL-AF9), read-out: IC50 proliferation
Protocol: as §1

[4] = test system: MLL-fused cell lines (MV4-11, MOLM-13); assay: CD11b protein expression by flow cytometry, MLL-fused lines; conditions: 4 and 7 days of treatment
Protocol: as §2

[5] = D1, read-out: IC50 proliferation
[6] = D4, read-out: IC50 proliferation
[7] = D7, read-out: IC50 proliferation
[8] = 168 h, 7 days of treatment (D7)

Work on `COc1cc(F)ccc1-c1cc(Nc2cc(CS(C)(=N)=O)ccn2)ncc1F` (stereo not drawn) [BAY 1251152] yielded an IC50 (RS4;11 (MLL-AF4) cells; D1) of 110 nM, an IC50 (RS4;11 (MLL-AF4) cells; D4) of 90 nM and an IC50 (RS4;11 (MLL-AF4) cells; D7) of 90 nM. The IC50 (OCI-AML-3 (MLL-WT) cells; D1) was 90 nM, the IC50 (OCI-AML-3 (MLL-WT) cells; D4) was 110 nM and the IC50 (OCI-AML-3 (MLL-WT) cells; D7) was 180 nM. The IC50 (MOLM-14 (MLL-AF9) cells; D1) was 40 nM, the IC50 (MOLM-14 (MLL-AF9) cells; D4) was 40 nM and the IC50 (MOLM-14 (MLL-AF9) cells; D7) was 70 nM. For the same compound, the IC50 (OCI-AML-5 (MLL-WT) cells; D1) was 160 nM, the IC50 (OCI-AML-5 (MLL-WT) cells; D4) was 50 nM and the IC50 (OCI-AML-5 (MLL-WT) cells; D7) was 30 nM. It also gave an IC50 (NOMO-1 (MLL-AF9) cells; D1) of 240 nM, an IC50 (NOMO-1 (MLL-AF9) cells; D4) of 60 nM and an IC50 (NOMO-1 (MLL-AF9) cells; D7) of 100 nM. It also gave an IC50 (EOL-1 (MLL-TD) cells; D1) of 70 nM, an IC50 (EOL-1 (MLL-TD) cells; D4) of 30 nM and an IC50 (EOL-1 (MLL-TD) cells; D7) of 60 nM. For the same compound, the IC50 (MV4-11 (MLL-AF4) cells; D1) was 230 nM, the IC50 (MV4-11 (MLL-AF4) cells; D4) was 70 nM and the IC50 (MV4-11 (MLL-AF4) cells; D7) was 220 nM. The IC50 (Jurkat (MLL-WT) cells; [5]) was 140 nM, the IC50 (Jurkat (MLL-WT) cells; [6]) was 30 nM and the IC50 (Jurkat (MLL-WT) cells; [7]) was 30 nM. For the same compound, the IC50 (KOPN-8 (MLL-ENL) cells; D1) was 160 nM, the IC50 (KOPN-8 (MLL-ENL) cells; D4) was 120 nM and the IC50 (KOPN-8 (MLL-ENL) cells; D7) was 210 nM. For the same compound, the IC50 (HL-60 (MLL-WT) cells; 24 h, 1 day of treatment (D1)) was 140 nM, the IC50 (HL-60 (MLL-WT) cells; 96 h, 4 days of treatment (D4)) was 110 nM and the IC50 (HL-60 (MLL-WT) cells; [8]) was 240 nM. The IC50 [1] was 30 to 140 nM, the “cell cycle effect” value [2] was “decrease of cells in S and G2/M phase with increasing concentrations” and the IC50 (ML-2 (MLL-AF6) cells; D1) was 110 nM. The IC50 (ML-2 (MLL-AF6) cells; D4) was 200 nM, the IC50 (ML-2 (MLL-AF6) cells; D7) was 230 nM and the “CD11b level” value (HL-60 cells) was “treatment did”. The IC50 (SEM (MLL-AF4) cells; D1) was 260 nM, the IC50 (SEM (MLL-AF4) cells; D4) was 90 nM and the IC50 (SEM (MLL-AF4) cells; D7) was 200 nM. It also gave an IC50 ([3]; D1) of 70 nM, an IC50 ([3]; D4) of 110 nM and an IC50 ([3]; D7) of 70 nM. For the same compound, the IC50 (MOLM-13 (MLL-AF9) cells; D1) was 70 nM, the IC50 (MOLM-13 (MLL-AF9) cells; D4) was 60 nM and the IC50 (MOLM-13 (MLL-AF9) cells; D7) was 70 nM.
With `Cc1sc2c(c1C)C(c1ccc(Cl)cc1)=N[C@@H](CC(=O)Nc1ccc(O)cc1)c1nnc(C)n1-2` [OTX015] the IC50 (RS4;11 (MLL-AF4) cells; D1) was > 10000 nM, the IC50 (RS4;11 (MLL-AF4) cells; D4) was 170 nM and the IC50 (RS4;11 (MLL-AF4) cells; D7) was 150 nM. The IC50 (OCI-AML-3 (MLL-WT) cells; D1) was > 10000 nM, the IC50 (OCI-AML-3 (MLL-WT) cells; D4) was 40 nM and the IC50 (OCI-AML-3 (MLL-WT) cells; D7) was 70 nM. For the same compound, the “CD11b protein level” value [4] was “increased CD11b protein level in a dose and time-dependent manner”, the IC50 (MOLM-14 (MLL-AF9) cells; D1) was > 10000 nM and the IC50 (MOLM-14 (MLL-AF9) cells; D4) was 40 nM. The IC50 (MOLM-14 (MLL-AF9) cells; D7) was 60 nM, the IC50 (OCI-AML-5 (MLL-WT) cells; D1) was > 10000 nM and the IC50 (OCI-AML-5 (MLL-WT) cells; D4) was 70 nM. For the same compound, the IC50 (OCI-AML-5 (MLL-WT) cells; D7) was 80 nM, the IC50 (NOMO-1 (MLL-AF9) cells; D1) was > 10000 nM and the IC50 (NOMO-1 (MLL-AF9) cells; D4) was 10 nM. The IC50 (NOMO-1 (MLL-AF9) cells; D7) was 10 nM, the IC50 (EOL-1 (MLL-TD) cells; D1) was > 10000 nM and the IC50 (EOL-1 (MLL-TD) cells; D4) was 30 nM. For the same compound, the IC50 (EOL-1 (MLL-TD) cells; D7) was 40 nM, the IC50 (MV4-11 (MLL-AF4) cells; D1) was > 10000 nM and the IC50 (MV4-11 (MLL-AF4) cells; D4) was 140 nM. The IC50 (MV4-11 (MLL-AF4) cells; D7) was 180 nM, the IC50 (Jurkat (MLL-WT) cells; [5]) was > 10000 nM and the IC50 (Jurkat (MLL-WT) cells; [6]) was 100 nM. The IC50 (Jurkat (MLL-WT) cells; [7]) was 170 nM, the IC50 (KOPN-8 (MLL-ENL) cells; D1) was > 10000 nM and the IC50 (KOPN-8 (MLL-ENL) cells; D4) was 300 nM. For the same compound, the IC50 (KOPN-8 (MLL-ENL) cells; D7) was 320 nM, the IC50 (HL-60 (MLL-WT) cells; 24 h, 1 day of treatment (D1)) was > 10000 nM and the IC50 (HL-60 (MLL-WT) cells; 96 h, 4 days of treatment (D4)) was 70 nM. For the same compound, the IC50 (HL-60 (MLL-WT) cells; [8]) was 270 nM, the IC50 [1] was 30 to 140 nM and the “cell cycle effect” value [2] was “decrease of cells in S and G2/M phase with increasing concentrations”. For the same compound, the IC50 (ML-2 (MLL-AF6) cells; D1) was > 10000 nM, the IC50 (ML-2 (MLL-AF6) cells; D4) was 390 nM and the IC50 (ML-2 (MLL-AF6) cells; D7) was 180 nM. The “CD11b level” value (HL-60 cells) was “treatment did”, the IC50 (SEM (MLL-AF4) cells; D1) was > 10000 nM and the IC50 (SEM (MLL-AF4) cells; D4) was 70 nM. The IC50 (SEM (MLL-AF4) cells; D7) was 80 nM, the IC50 ([3]; D1) was > 10000 nM and the IC50 ([3]; D7) was 80 nM. For the same compound, the IC50 (MOLM-13 (MLL-AF9) cells; D1) was > 10000 nM, the IC50 (MOLM-13 (MLL-AF9) cells; D4) was 30 nM and the IC50 (MOLM-13 (MLL-AF9) cells; D7) was 110 nM.
